The text below walks through data of patent publication US20260216109A1, “TREATMENT OF SKIN DISORDERS WITH SHORT CHAIN FATTY ACIDS” (Temple University-Of The Commonwealth System of Higher …, priority 2023, published 2026).

One series concerns TNF-α. The experiment in a line: ELISA analysis of TNF-α, InflammaSkin. The class given is cell-based, human. The note with it: Example 2; Otezla-treated InflammaSkin; FIG. 20.
For another series, the system named is InflammaSkin® models. The experiment in a line: Hematoxylin & Eosin (H&E) staining of InflammaSkin models (skin structure, integrity, viability). The class given is cell-based, human. The settings on record: Example 1; Day 7; Day 1-6: 1 μM Otezla or SCFA (45 μg/mL Ca-propionate + 1 mM Ca-/Mg-butyrate) systemic, 0.05% Betamethasone topical; vs untreated InflammaSkin. On the procedure:
A total of 16 biopsies of 15 mm diameter were produced from a single donor. Two NativeSkin® models with 12/15 mm silicon rings were produced from the biopsies according to standard procedures in place, and cultured under cell culture conditions (37° C., 5% CO2, max. humidity) for 7 days with 2 mL of standard NativeSkin® medium renewed every day. Fourteen PSO-InflammaSkin® models with 12/15 mm silicon rings were produced by inducing in situ activation and Th17/Th1 polarization of skin resident T cells with a proprietary cocktail, and cultured under cell culture conditions (37° C., 5% CO2, max. humidity) for 7 days with 2 mL of PSO-InflammaSkin® culture medium renewed every day.
From Day 1 to Day 6, models were systemically treated with 1 μM Otezla or Short Chain Fatty Acids (SCFAs), or topically treated with positive control 0.05% Betamethasone
In these experiments, the SCFAs administered were 45 μg/mL of Ca-propionate and 1 mM mixture of salts (Ca-butyrate and Mg-butyrate). […]
Skin structure and integrity and viability were evaluated using Hematoxylin & Eosin (H&E) staining following treatment with Betamethasone, […] Otezla® (Apremilast), or SCFAs comprising butyric acid and propionic acid. […] Therefore, the donor sample was determined to remain viable over the course of the culture in the absence of inflammation/T-cell activation.

The subject of series [1] is imiquimod (IMQ)-induced psoriasis model mice. The experiment in a line: Back skin scaling, IMQ-induced psoriasis model in mice. The series is classed as in vivo, mouse. The settings on record: for skin scaling: Example 12. As for the experimental part:
Topical application of IMQ, a TLR7/8 ligand and potent immune activator induced and exacerbated psoriasis in mice. The mouse IMQ-induced psoriasis (IMQ Ps) model was initiated by a repeated topical application of Aldara© cream (containing 5% IMQ) over 6 consecutive days. Female Balb/c mice (9 weeks of age at reception, ordered with 20 g, Charles River, Sulzfeld, Germany; n=10 mice/group, exception healthy controls n=4) received daily a topical application of 62.5 mg of commercially available IMQ cream (5% Aldara©) on the beforehand (day −1) shaved (~2 cm×3 cm), depilated (Pilka© cream) back skin, and 7 mg on the outer right ear skin for 6 consecutive days, translating in a daily dose of approximately 3.5 mg IMQ. Healthy control mice were included in the study and were treated with vehicle cream (Vaseline; Bombastus-Werke AG) only instead of IMQ. Additionally, an IMQ disease control group was also included.
Disease Severity Score was evaluated on a daily base starting with the induction of psoriasis by IMQ application (day 0) until the end (day 6) of the study. The psoriasis severity on the back skin of the mice was evaluated by using a modified scoring system developed by van der Fits et al., based on the clinical PASI (psoriasis area and severity index) and takes skin erythema, scaling and skin thickening into account. Scoring was performed by the same lab technician throughout the experiment. Each parameter was scored independently on a scale from 0 to 3.
Before starting treatment on the day of disease induction (day 0), mice were randomized based on body weight to the respective group. To evaluate the anti-inflammatory efficacy of the two compounds in mouse IMQ psoriasis, mice were treated twice daily ([…] in sterile water; m/m/v) alone, with fixed dose of SCFA (in ddH2O) alone, […] dose of SCFA. Healthy and IMQ disease controls were orally treated in parallel with vehicle only. All treatments started with first application of IMQ on day 0.
Skin scaling, one of the disease severity score parameters, was evaluated in IMQ-treated mice (FIGS. 57-59).

Series [2] can be described thus: Observations of animal well-being in IMQ-induced psoriasis model mice. The class given is in vivo, mouse.

`CCOc1cc([C@@H](CS(C)(=O)=O)N2C(=O)c3cccc(NC(C)=O)c3C2=O)ccc1OC` [Otezla, Apremilast]: the TNFα level (by ELISA) in the series on TNF-α was ~13 pg/mL. Moreover, the “H&E: incidence of pyknosis, vacuolization and epidermal/dermal separation” value with InflammaSkin® models was “reduce the incidence of pyknosis, vacuolization and epidermal/dermal separation”. Besides, the “back skin scaling (desquamation) over time” value in series [1] (Example 9, Apremilast 25 mg/kg BID, SCFA fixed dose (120 mg/kg/day Ca-propionate + 1,100 mg/kg/day Ca-/Mg-butyrate), alone or combined, oral) was “able to inhibit the skin scaling from day 3 to day 5”. The “cumulative evaluation of skin scaling over the entire course of the study” value in series [1] (Example 9, Apremilast 25 mg/kg BID, SCFA fixed dose (120 + 1,100 mg/kg/day), alone or combined, p<0.01) is “significant and similar beneficial effects”. Also, the skin scaling entry in series [1] (day 5 and day 6, Apremilast 25 mg/kg BID alone, or combined with fixed dose SCFA (60 + 1,100 mg/kg/day)) is “significantly inhibited skin scaling on day 5 (p<0.05) and day 6 (p<0.01)”; in series [1] (day 6, fixed dose SCFA alone, Apremilast 12 mg/kg BID alone, or both combined), “did not reach significance at day 6”. Further, the “observations of animal well-being” value in series [2] (Example 4, SCFA fixed dose BID (120 + 2,146 mg/kg/day), Apremilast 50 mg/kg/day, oral, study duration) was “reduced activity, ruffled coat and were slightly hunched”; in series [2] (Example 7, SCFA (120 + 1,100 mg/kg/day), Apremilast 2.5, 5, 7 mg/kg BID, or combinations, study duration), “well tolerated”; in series [2] (Example 8 (written in present tense), SCFA, Apremilast 2.5, 5, 7 mg/kg BID, or combinations), “well tolerated”; in series [2] (Example 9, SCFA fixed dose, Apremilast 25 mg/kg BID, or combination, study duration), “well tolerated”; in series [2] (Example 10 (written in present tense), SCFA, Apremilast 25 mg/kg BID, or combination), “well tolerated”; in series [2] (Example 12, SCFA fixed dose, Apremilast 12 or 25 mg/kg BID, or combinations, study duration) it was “well tolerated”.
